The values below come from US7244608B2, “Microorganism producing 5′-inosinic acid and process for producing 5′-inosinic acid using the same” (priority 2000, dated 2007).

One experiment has as its system CISM10. As to the kind of experiment: Growth on minimal agar medium containing the agent, strain CISM10. Format: cell-based, Corynebacterium ammoniagenes. The method, then:
The mutant of Example 1, strain LY002, was used as the parent strain for Example 2. LY002 was suspended to 10^7˜10^8 cells/mL in the phosphate buffer (pH 7.0) or citrate buffer (pH 5.5). NTG mutagenesis was performed as in Example 1. Colonies were obtained by suitably suspending and spreading cells on a 3 minimal media (Medium 2), which contained 1.7% agar and 1,000 μg/ml, 1,500 μg/mL or 2,000μg/mL of streptomycin, respectively. Then, each colony was cultivated on the nutrition medium (Medium 1), then cultivated for 24 hours on a seed medium (Medium 3), and cultivated for 3˜4 days on a culture medium (Medium 4) thereby to select CISM10 that can produce 5′-inosinic acid accumulated in the culture medium at the largest amounts.
The mutant of Example 2, strain CISM10, was used as the parent strain for Example 3. CISM10 was suspended to 10^7˜10^8 cells/mL in the phosphate buffer (pH 7.0) or citrate buffer (pH 5.5). NTG mutagenesis was performed as in Example 1. Colonies were obtained by suitably suspending and spreading cells on a 3 minimal media (Medium 2), which contained 1.7% agar and 1,500 μg/ml, 2,500 μg/ml, or 3,500 μg/mL of 3,4-dehydroproline, respectively. Then, each colony was cultivated on the nutrition medium (Medium 1), then cultivated for 24 hours on a seed medium (Medium 3), and cultivated for 3–4 days on a culture medium (Medium 4) thereby to select […] that can produce 5′-inosinic acid accumulated in the culture medium at the largest amounts.

The test system of experiment [1] is Corynebacterium ammoniagenes strain CJ112 (ATCC-6872). As to the kind of experiment: Growth on minimal agar medium containing the agent; biochemical properties of parent strain. Format: cell-based. The method, then:
(§1) The biochemical properties of representative variants of the novel strain CJIP009 according to the present invention is shown in the following Table 1 (This invention is not limited to the following properties).
(§2) Corynebacterium ammoniagenes strain CJ112 (ATCC-6872), the parent strain, was suspended to 10^7˜10^8 cells/mL in the phosphate buffer (pH 7.0) or citrate buffer (pH 5.5). N-methyl-N′-nitro-N-nitrosoguanidine (NTG) was added to a final concentration of 10˜50 μg/mL at room temperature or 32° C. After 20˜40 minutes, cells were washed twice with 0.85% saline. Colonies were obtained by suitably suspending and spreading cells on a minimal medium (Medium 2) containing 1.7% agar. Then, each colony was tooth picked on to the minimal medium (Medium 2) containing 1.7% agar and on the minimal medium (Medium 2) containing 1.7% agar and […] of lysozyme. First, microorganisms that grew on the minimal medium containing 1.7% agar, but not on the minimal medium containing 40 μg/mL of lysozyme were selected. […] The colony of highly lysozyme sensitive microorganisms was cultivated on a nutrition medium (Medium 1), then cultivated for 24 hours on a seed medium (Medium 3), and cultivated for 3˜4 days on a culture medium (Medium 4) thereby to select LY002 that can produce 5′-inosinic acid accumulated in the culture medium at the largest amounts.

A further experiment has as its system CS101. The experiment is described as follows: Growth on minimal agar medium containing the agent, strain CS101. In kind it is cell-based, Corynebacterium ammoniagenes.
The test system of experiment [2] is Corynebacterium ammoniagenes CJIP009 (KCCM-10226). As to the kind of experiment: Growth on minimal agar medium containing the agent; biochemical properties of mutant CJIP009. Format: cell-based. As to conditions: strain CJIP009 (KCCM-10226). The method, then:
The protocol by which the mutant microorganims of the present invention was isolated began with strain CJ 12 as the parental strain and consisted of several iterations of mutagenesis and screening. In each iteration, microorganisms were treated with X-ray irradiation, ultraviolet ray irradiation, and/or a chemical mutagen, such as N-methyl-N′-nitro-N-nitrosoguanidine (NTG), diethyl sulfate, ethyl amine, etc., and then screened for 5′-inosinic acid production. Treated bacteria were suitably suspended and spread on a minimal medium (Medium 2) containing 1.7% agar and each concentration of variants. Then, each colony was cultivated on a nutrition medium (Medium 1) followed by a seed medium (Medium 3) for 24 hours and a fermentation medium (Medium 4) for […]. Colonies that produced the highest levels of 5′-inosinic acid were selected for subsequent rounds of mutagenesis.
as §1
The mutant of Example 5, strain CITP13, was used as the parent strain for Example 6. CITP13 was suspended to 10^7˜10^8 cells/mL in the phosphate buffer (pH 7.0) or citrate buffer (pH 5.5). NTG mutagenesis was performed as in Example 1. Colonies were obtained by suitably suspending and spreading cells on a 3 minimal media (Medium 2), which contained 1.7% agar and 50 μg/ml, 75 μg/ml, or 100 μg/mL of azaserine, respectively. Then, each colony was cultivated on the nutrition medium (Medium 1), then cultivated for 24 hours on a seed medium (Medium 3), and cultivated for 3–4 days on a culture medium (Medium 4) thereby to select CJIP009 (KCCM-10226) that can produce 5′-inosinic acid accumulated in the culture medium at the largest amounts.

The test system of the next experiment is CITP13. The experiment is described as follows: Growth on minimal agar medium containing the agent, strain CITP13. Format: cell-based, Corynebacterium ammoniagenes. The method, then:
The mutant of Example 4, strain CIAC12, was used as the parent strain for Example 5. CIAC12 was suspended to 10^7˜10^8 cells/mL in the phosphate buffer (pH 7.0) or citrate buffer (pH 5.5). NTG mutagenesis was performed as in Example 1. Colonies were obtained by suitably suspending and spreading cells on a 3 minimal media (Medium 2), which contained 1.7% agar and 20 μg/ml, 50 μg/ml, or 100 μg/mL of L-thiazolidine-4-carboxylic acid, respectively. Then, each colony was cultivated on the nutrition medium (Medium 1), then cultivated for 24 hours on a seed medium (Medium 3), and, cultivated for 3˜4 days on a culture medium (Medium 4) thereby to select CITP13 that can produce 5′-inosinic acid accumulated in the culture medium at the largest amounts.
The mutant of Example 5, strain CITP13, was used as the parent strain for Example 6. CITP13 was suspended to 10^7˜10^8 cells/mL in the phosphate buffer (pH 7.0) or citrate buffer (pH 5.5). NTG mutagenesis was performed as in Example 1. Colonies were obtained by suitably suspending and spreading cells on a 3 minimal media (Medium 2), which contained 1.7% agar and 50 μg/ml, 75 μg/ml, or 100 μg/mL of azaserine, respectively. […]

A further experiment deals with CIAC12. As to the kind of experiment: Growth on minimal agar medium containing the agent, strain CIAC12. Format: cell-based, Corynebacterium ammoniagenes. The method, then:
The mutant of Example 3, strain CS101, was used as the parent strain for Example 4. CS101 was suspended to 10^7˜10^8 cells/mL in the phosphate buffer (pH 7.0) or citrate buffer (pH 5.5). NTG muta genesis was performed as in Example 1. Colonies were obtained by suitably suspending and spreading cells on a 3 minimal media (Medium 2), which contained 1.7% agar and 10 μg/ml, 20 μg/ml, or 30 μg/mL of L-azetidine-2-carboxylic acid, respectively. Then, each colony was cultivated on the nutrition medium (Medium 1), then cultivated for 24 hours on a seed medium (Medium 3), and cultivated for 3˜4 days on a culture medium (Medium 4), thereby to select CIAC12 that can produce 5′-inosinic acid accumulated in the culture medium at the largest amounts.

A further experiment deals with the present strain. As to the kind of experiment: Effect of amino acids on synthesis of 5'-inosinic acid by direct fermentation. In kind it is cell-based, Corynebacterium ammoniagenes. To be noted: added to the medium. An excerpt: Accordingly, the present inventors tested the effect of various amino acids on the synthesis of 5′-inosinic acid by direct fermentation. As the result, the inventors determined that the fermentation concentration of 5′-inosinic acid increased upon addition of L-glutamine to the medium. The inventors further determined that the appropriate supply of L-glutamine to the present strain is a rate-limiting step in the synthesis of 5′-inosinic acid.

The test system of another experiment is LY002. As to the kind of experiment: Growth on minimal agar medium containing the agent, strain LY002. In kind it is cell-based, Corynebacterium ammoniagenes. The method, then:
as §2
The mutant of Example 1, strain LY002, was used as the parent strain for Example 2. LY002 was suspended to 10^7˜10^8 cells/mL in the phosphate buffer (pH 7.0) or citrate buffer (pH 5.5). NTG mutagenesis was performed as in Example 1. […]

Consider `O=C(O)C1C=CCN1` (stereo not shown) [3,4-dehydroproline], for which the entries for the “Concentration of 3,4-dehydroproline at which the microorganism shows resistance” value in the experiment on CISM10 and in the experiment with CS101 were 1,000 μg/ml and 3,500 μg/ml, respectively. The “Resistance to agent (concentration)” value is listed as 1,000 μg/ml in experiment [1] (strain ATCC6872) and 3,500 μg/ml in experiment [2].
`[N-]=[N+]=CC(=O)OC[C@H](N)C(=O)O` [Azaserine]: the results for the “Concentration of azaserine at which the microorganism shows resistance” value (in the experiment on CITP13; in experiment [2]) were 25 µg/mL and 100 µg/mL, respectively. For the same compound, the “Resistance to agent (concentration)” value in experiment [1] (strain ATCC6872) stood at 25 µg/mL; in experiment [2] it was 100 µg/mL.
Consider `O=C(O)[C@@H]1CCN1` [L-azetidine-2-carboxylic acid], for which the “Concentration of L-azetidine-2-carboxylic acid at which the microorganism shows resistance” value in the experiment with CISM10 came to 5 mg/mL; in the experiment with CIAC12, 30 mg/mL. The “Resistance to agent (concentration)” value in experiment [1] (strain ATCC6872) was found to be 5000 µg/mL; in experiment [2], 30000 µg/mL.
For `NC(=O)CC[C@H](N)C(=O)O` [L-glutamine], in the experiment with the present strain, the “Fermentation concentration of 5'-inosinic acid upon addition to the medium” value is reported as “increased”.
In the case of `O=C(O)[C@@H]1CSCN1` [L-thiazolidine-4-carboxylic acid], the “Concentration of L-thiazolidine-4-carboxylic acid at which the microorganism shows resistance” value was 10 µg/mL in the experiment on CISM10 and 100 µg/mL in the experiment on CS101. Moreover, the results for the “Resistance to agent (concentration)” value in experiment [1] (strain ATCC6872) and in experiment [2] were 10 µg/mL and 100 µg/mL, respectively.
On to `[H]/N=C(/N)N[C@H]1[C@H](O)[C@@H](O)[C@H](O[C@@H]2O[C@@H](C)[C@](O)(C=O)[C@H]2O[C@@H]2O[C@@H](CO)[C@H](O)[C@@H](O)[C@@H]2NC)[C@@H](N/C(N)=N\[H])[C@@H]1O` [Streptomycin, streptomycin], for which the results for the “Concentration of streptomycin at which the microorganism shows resistance” value in the experiment on CISM10 and in the experiment with LY002 were 2,000 μg/ml and 500 µg/mL, respectively. The “Resistance to agent (concentration)” value was 500 µg/mL in experiment [1] (strain ATCC6872) and 2,000 μg/ml in experiment [2].
Take lysozyme: the “Sensitivity to lysozyme (minimal growth inhibition concentration)” value in experiment [1] (strain ATCC6872) came to 80 µg/mL; in experiment [2], 8 µg/mL. Besides, the “Concentration of lysozyme at which the microorganism shows sensitivity” value in experiment [1] (strain CJ112) stood at 80 µg/mL; with LY002, 8 µg/mL.
